Results published in ChEMBL document CHEMBL5053519, “Discovery and structure - activity relationship exploration of pyrazolo[1,5-a]pyrimidine derivatives as potent FLT3-ITD inhibitors” (Bioorg Med Chem, 2021).
Active and inactive are the calls of the source. The calls are words filed in the database; no cut-off is given here.

Tests used:
[1] = target: T1, Receptor-type tyrosine-protein kinase FLT3 (Homo sapiens, UniProt P36888)
T1 sequence (P36888 whole entry): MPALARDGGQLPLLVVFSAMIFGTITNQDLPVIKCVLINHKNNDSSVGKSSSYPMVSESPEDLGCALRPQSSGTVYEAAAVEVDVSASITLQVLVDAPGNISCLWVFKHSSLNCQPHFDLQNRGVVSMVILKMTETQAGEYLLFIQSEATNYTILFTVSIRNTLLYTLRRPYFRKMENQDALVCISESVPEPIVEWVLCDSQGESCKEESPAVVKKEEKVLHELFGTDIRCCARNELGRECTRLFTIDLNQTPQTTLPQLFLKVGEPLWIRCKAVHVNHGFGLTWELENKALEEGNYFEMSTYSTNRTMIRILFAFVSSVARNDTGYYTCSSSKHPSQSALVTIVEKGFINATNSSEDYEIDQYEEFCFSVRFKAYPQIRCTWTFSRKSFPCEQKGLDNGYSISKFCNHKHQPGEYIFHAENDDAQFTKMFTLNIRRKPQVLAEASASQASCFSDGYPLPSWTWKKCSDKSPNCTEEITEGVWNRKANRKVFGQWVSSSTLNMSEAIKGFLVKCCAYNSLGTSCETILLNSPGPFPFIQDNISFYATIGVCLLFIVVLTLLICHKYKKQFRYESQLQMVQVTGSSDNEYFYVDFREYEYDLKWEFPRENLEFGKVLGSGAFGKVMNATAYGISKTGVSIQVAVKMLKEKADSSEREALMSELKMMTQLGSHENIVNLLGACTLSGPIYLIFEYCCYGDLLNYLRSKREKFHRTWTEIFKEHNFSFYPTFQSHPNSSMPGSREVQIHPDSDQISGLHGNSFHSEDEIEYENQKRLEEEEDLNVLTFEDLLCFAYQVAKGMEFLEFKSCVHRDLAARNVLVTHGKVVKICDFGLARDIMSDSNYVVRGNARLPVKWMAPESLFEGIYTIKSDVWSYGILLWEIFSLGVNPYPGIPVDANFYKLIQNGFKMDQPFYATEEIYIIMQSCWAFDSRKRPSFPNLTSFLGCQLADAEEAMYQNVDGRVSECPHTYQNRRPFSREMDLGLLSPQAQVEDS
Description: Inhibition of FLT3 (unknown origin) using Poly (Glu,Tyr) 4:1 as substrate incubated for 1 hr in presence of ATP by ELISA

[2] = target: Receptor-type tyrosine-protein kinase FLT3 (Homo sapiens, UniProt P36888, ITD)
Description: Inhibition of FLT3-ITD mutant (unknown origin) using Poly (Glu,Tyr) 4:1 as substrate incubated for 1 hr in presence of ATP by ELISA

MV4-11 = test: cells; settings: Homo sapiens, MV4-11, 72 h
Description: Antiproliferative activity against human MV4-11 cells assessed as reduction in cell viability incubated for 72 hrs by CCK8 assay

MOLM-13 = test: cells; settings: Homo sapiens, MOLM-13, 72 h
Description: Antiproliferative activity against human MOLM-13 cells assessed as reduction in cell viability incubated for 72 hrs by CCK8 assay

[3] = target: Receptor-type tyrosine-protein kinase FLT3 (Homo sapiens, UniProt P36888, D835Y)
[4] = target: Receptor-type tyrosine-protein kinase FLT3 (Homo sapiens) (UniProt P36888); test: Inhibition of FLT3 phosphorylation in human MV4-11 cells at 0.1 to 10 nM incubated for 2 hrs by Western blot analysis; format: cell-based; settings: dose 0.1-10 nM
[5] = target: Receptor-type tyrosine-protein kinase FLT3 (Homo sapiens) (UniProt P36888); test: Inhibition of FLT3 in human MV4-11 cells assessed as suppression of Erk phosphorylation incubated for 2 hrs by Western blot analysis; format: cell-based; settings: dose 0.1-10 nM
[6] = target: Receptor-type tyrosine-protein kinase FLT3 (Homo sapiens) (UniProt P36888); settings: MV4-11, dose 1.1 nM, time 2.0 hrs
[7] = target: Receptor-type tyrosine-protein kinase FLT3 (Homo sapiens) (UniProt P36888); settings: MV4-11, dose 1.1 nM, time 2.0 hrs; remark: listed apart in the source

| IC50 [1] [nM] | IC50 [2] [nM] | IC50 (MV4-11) [nM] | IC50 (MOLM-13) [nM] | IC50 [3] [nM] | inhibition [4] | inhibition [5] | inhibition [6] [%] | inhibition [7] [%] | SMILES |
| --- | --- | --- | --- | --- | --- | --- | --- | --- | --- |
| 2.7 | 3.1 | 1 | 10.3 | – | – | – | – | – | COc1cc(N2CCOCC2)ccc1NC(=O)c1cnn2ccc(N[C@@H]3CCCNC3)nc12 |
| 38.2 | 144 | 5.3 | 19.4 | – | – | – | – | – | COc1ccccc1NC(=O)c1cnn2ccc(N[C@@H]3CCCNC3)nc12 |
| 12 | 3.7 | 7 | 17 | – | – | – | – | – | COc1cc(N2CCN(C)CC2)ccc1NC(=O)c1cnn2ccc(N3CCC[C@@H](N)C3)nc12 |
| 2.6 | 2 | 0.6 | 3.7 | – | – | – | – | – | N#Cc1cc(N2CCOCC2)ccc1NC(=O)c1cnn2ccc(N[C@@H]3CCCNC3)nc12 |
| 1.2 | 1.6 | < 0.32 | 2.5 | – | – | – | – | – | CSc1cc(N2CCOCC2)ccc1NC(=O)c1cnn2ccc(N[C@@H]3CCCNC3)nc12 |
| 25.1 | 110 | 9.8 | 16.5 | – | – | – | – | – | O=C(Nc1ccc(N2CCOCC2)cc1F)c1cnn2ccc(N[C@@H]3CCCNC3)nc12 |
| > 1000 | 296 | 12.9 | 111 | – | – | – | – | – | O=C(Nc1ccc(N2CCOCC2)cc1C(F)(F)F)c1cnn2ccc(N[C@H]3CCCNC3)nc12 |
| 8 | 69.5 | 9.8 | 13 | – | – | – | – | – | COc1cc(N2CCCCC2)ccc1NC(=O)c1cnn2ccc(N[C@@H]3CCCNC3)nc12 |
| 160 | > 1000 | > 1000 | > 1000 | – | – | – | – | – | CN(c1ccn2ncc(C(=O)Nc3ccc(N4CCOCC4)cc3C(F)(F)F)c2n1)[C@@H]1CCCNC1 |
| 37.7 | 21.6 | 23.5 | 37.1 | – | – | – | – | – | O=C(Nc1ccc(N2CCOCC2)cc1)c1cnn2ccc(N[C@@H]3CCCNC3)nc12 |
| 3.9 | 18.7 | 26.5 | 43.7 | – | – | – | – | – | COc1cc(N2CCN(S(C)(=O)=O)CC2)ccc1NC(=O)c1cnn2ccc(N3CCC[C@@H](N)C3)nc12 |
| 39.9 | 30.7 | 29.5 | 157 | – | – | – | – | – | O=C(Nc1ccc(N2CCOCC2)cc1C(F)(F)F)c1cnn2ccc(NC3CNC3)nc12 |
| 1.4 | 1.1 | 7.5 | 13.8 | – | – | – | – | – | Cc1cc(N2CCOCC2)ccc1NC(=O)c1cnn2ccc(N[C@@H]3CCCNC3)nc12 |
| 2.7 | 4.1 | 9.8 | 11.4 | – | – | – | – | – | CCOc1cc(N2CCOCC2)ccc1NC(=O)c1cnn2ccc(N[C@@H]3CCCNC3)nc12 |
| 1.4 | 1.2 | 7.66 | 17.4 | – | – | – | – | – | COc1cc(N2CCN(C(C)=O)CC2)ccc1NC(=O)c1cnn2ccc(N[C@@H]3CCCNC3)nc12 |
| 8.7 | 7.2 | 172 | > 1000 | – | – | – | – | – | NC(=O)c1cc(N2CCOCC2)ccc1NC(=O)c1cnn2ccc(N[C@@H]3CCCNC3)nc12 |
| 7.1 | 83.1 | 11.7 | 19.5 | – | – | – | – | – | COc1cc(N2CCCC2)ccc1NC(=O)c1cnn2ccc(N[C@@H]3CCCNC3)nc12 |
| 3.5 | 37.5 | 10 | 23.5 | – | – | – | – | – | COc1cc(N(C)CCN(C)C)ccc1NC(=O)c1cnn2ccc(N[C@@H]3CCCNC3)nc12 |
| > 1000 | > 1000 | > 1000 | > 1000 | – | – | – | – | – | O=C(Nc1ccc(N2CCOCC2)cc1C(F)(F)F)c1cnn2ccc(NC3CCCCC3)nc12 |
| 0.4 | 1 | 1.3 | 1 | 0.3 | Active | Dose-dependent effect | 100 | 100 | O=C(Nc1ccc(N2CCOCC2)cc1C(F)(F)F)c1cnn2ccc(N[C@@H]3CCCNC3)nc12 |
| 3.5 | 1.3 | 11.2 | 28.3 | – | – | – | – | – | COc1cc(N2CCOCC2)ccc1NC(=O)c1cnn2ccc(N3CCC[C@@H](N)C3)nc12 |
| 16.5 | 6.7 | 28.5 | 155 | – | – | – | – | – | O=C(Nc1ccc(N2CCOCC2)cc1C(F)(F)F)c1cnn2ccc(NC3CCNCC3)nc12 |
| 32.9 | 197 | 34.8 | 35.9 | – | – | – | – | – | CC(C)Oc1cc(N2CCOCC2)ccc1NC(=O)c1cnn2ccc(N[C@@H]3CCCNC3)nc12 |
| 0.4 | 0.8 | < 0.32 | 0.6 | 0.4 | – | – | – | – | O=C(Nc1ccc(N2CCOCC2)cc1Br)c1cnn2ccc(N[C@@H]3CCCNC3)nc12 |
| 3.8 | 1.9 | 46 | 249 | – | – | – | – | – | COc1cc(N2CCNCC2)ccc1NC(=O)c1cnn2ccc(N3CCC[C@@H](N)C3)nc12 |
| 2.9 | 18 | 6.3 | 10.3 | – | – | – | – | – | COc1cc(N2CCC(N3CCOCC3)CC2)ccc1NC(=O)c1cnn2ccc(N[C@@H]3CCCNC3)nc12 |
| 5.5 | 96.7 | 8 | 16.3 | – | – | – | – | – | O=C(Nc1ccc(N2CCOCC2)cc1C(F)(F)F)c1cnn2ccc(N[C@@H]3CCNC3)nc12 |
| 0.8 | 0.5 | < 0.32 | 1.4 | – | – | – | – | – | O=C(Nc1ccc(N2CCOCC2)cc1C(F)(F)F)c1cnn2ccc(N[C@@H]3CCCCNC3)nc12 |
| 264 | 181 | 23.4 | 262 | – | – | – | – | – | CN1CCC[C@@H](Nc2ccn3ncc(C(=O)Nc4ccc(N5CCOCC5)cc4C(F)(F)F)c3n2)C1 |

| SMILES | IC50 [1] [nM] | IC50 [2] [nM] | IC50 (MV4-11) [nM] | IC50 (MOLM-13) [nM] | IC50 [3] [nM] | inhibition [4] | inhibition [5] | inhibition [6] [%] | inhibition [7] [%] |
| --- | --- | --- | --- | --- | --- | --- | --- | --- | --- |
| O=C(Nc1ccc(N2CCOCC2)cc1C(F)(F)F)c1cnn2ccc(N[C@H]3CN4CCC3CC4)nc12 | 7 | 11.7 | 5.13 | 26.3 | – | – | – | – | – |
